# Test system: Staphylococcus aureus Smith
# Assay: MIC assay, modified agar dilution (CLSI), S. aureus Smith
# Format: cell-based
# Conditions: Staphylococcus aureus, agar dilution, 35° C., 16-20 hr; lowest concentration that completely inhibited growth; read-out: S_aureus_Smith_WT_MIC
# In short: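 Strains were spotted at about 1×10^4 CFU onto compound-containing Mueller Hinton agar (two-fold series, 128-0.001 μg/mL), horse blood 5% added for pneumococcus and enterococcus. MIC read after 16-20 hr at 35 °C, following a modified CLSI agar dilution method.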
row,MIC,SMILES
1,0.5 µg/mL,"COc1ccc2ncc(F)c(CCC34CCC(NCc5ccc(OC(F)F)c(OC)c5)(CC3)CO4)c2n1 [Example 95, N-(4-(Difluoromethoxy)-3-methoxybenzyl)-1-(2-(3-fluoro-6-methoxy-1,5-naphthyridin-4-yl)ethyl)-2-oxabicyclo[2.2.2]octan-4-amine]"
2,0.031 µg/mL,"COc1ccc2ncc(F)c(CCC34CCC(NCc5cc6c(cn5)OCC(=O)N6)(CC3)CO4)c2n1 [Example 96, 7-(((1-(2-(3-Fluoro-6-methoxy-1,5-naphthyridin-4-yl)ethyl)-2-oxabicyclo[2.2.2]octan-4-yl)amino)methyl)-1H-pyrido[3,4-b][1,4]oxazin-2(3H)-one]"
3,1 µg/mL,"COc1ccc2ncc(F)c(CCC34CCC(NCc5nc6ccccc6[nH]c5=O)(CC3)CO4)c2n1 [Example 97, 3-(((1-(2-(3-Fluoro-6-methoxy-1,5-naphthyridin-4-yl)ethyl)-2-oxabicyclo[2.2.2]octan-4-yl)amino)methyl)quinoxalin-2(1H)-one]"
4,0.016 µg/mL,"COc1ccc2ncc(F)c(CCC34CCC(NCc5nc6c(cc5F)OCC(=O)N6)(CC3)CO4)c2n1 [Example 98, 7-Fluoro-6-(((1-(2-(3-fluoro-6-methoxy-1,5-naphthyridin-4-yl)ethyl)-2-oxabicyclo[2.2.2]octan-4-yl)amino)methyl)-2H-pyrido[3,2-b][1,4]oxazin-3(4H)-one]"
5,0.25 µg/mL,"COc1ccc2ncc(F)c(CCC34CCC(NCc5ccc6c(n5)NC(=O)C(C)(C)O6)(CC3)CO4)c2n1.Cl [Example 99, 6-((1-(2-(3-Fluoro-6-methoxy-1,5-naphthyridin-4-yl)ethyl)-2-oxabicyclo[2.2.2]octan-4-ylamino)methyl)-2,2-dimethyl-2H-pyrido[3,2-b][1,4]oxazin-3(4H)-one]"
6,2 µg/mL,"COc1ccc2ncc(F)c(CCC34CCC(NCc5ccc6c(n5)N(C)C(=O)CO6)(CC3)CO4)c2n1 [Example 101, 6-((1-(2-(3-Fluoro-6-methoxy-1,5-naphthyridin-4-yl)ethyl)-2-oxabicyclo[2.2.2]octan-4-ylamino)methyl)-4-methyl-2H-pyrido[3,2-b][1,4]oxazin-3(4H)-one]"
7,2 µg/mL,"COc1ccc2ncc(F)c(CCC34CCC(NCc5cc6cc(F)ccc6n(C)c5=O)(CC3)CO4)c2n1 [Example 102, 6-Fluoro-3-((1-(2-(3-fluoro-6-methoxy-1,5-naphthyridin-4-yl)ethyl)-2-oxabicyclo[2.2.2]octan-4-ylamino)methyl)-1-methylquinolin-2(1H)-one]"
8,4 µg/mL,"COc1ccc2ncc(F)c(CCC34CCC(NCc5c(OC)c6ccccc6n(C)c5=O)(CC3)CO4)c2n1 [Example 103, 3-((1-(2-(3-Fluoro-6-methoxy-1,5-naphthyridin-4-yl)ethyl)-2-oxabicyclo[2.2.2]octan-4-ylamino)methyl)-4-methoxy-1-methylquinolin-2(1H)-one]"
9,> 8 µg/mL,"COc1ccc2ncc(F)c(CCC34CCC(NCc5cc6ccc(Cl)cc6n(C)c5=O)(CC3)CO4)c2n1 [Example 104, 7-Chloro-3-((1-(2-(3-fluoro-6-methoxy-1,5-naphthyridin-4-yl)ethyl)-2-oxabicyclo[2.2.2]octan-4-ylamino)methyl)-1-methylquinolin-2(1H)-one]"
10,2 µg/mL,"COc1ccc2ncc(F)c(CCC34CCC(NCc5cc6ccc(F)cc6n(C)c5=O)(CC3)CO4)c2n1 [Example 105, 7-Fluoro-3-((1-(2-(3-fluoro-6-methoxy-1,5-naphthyridin-4-yl)ethyl)-2-oxabicyclo[2.2.2]octan-4-ylamino)methyl)-1-methylquinolin-2(1H)-one]"
11,1 µg/mL,"COc1ccc2ncc(F)c(CCC34CCC(NCc5cc6c(Cl)cccc6n(C)c5=O)(CC3)CO4)c2n1 [Example 106, 5-Chloro-3-((1-(2-(3-fluoro-6-methoxy-1,5-naphthyridin-4-yl)ethyl)-2-oxabicyclo[2.2.2]octan-4-ylamino)methyl)-1-methylquinolin-2(1H)-one]"
12,32 µg/mL,"COc1ccc2ncc(F)c(CCC34CCC(NCc5ccc6oc(=O)[nH]c6n5)(CC3)CO4)c2n1 [Example 107, 5-((1-(2-(3-Fluoro-6-methoxy-1,5-naphthyridin-4-yl)ethyl)-2-oxabicyclo[2.2.2]octan-4-ylamino)methyl)oxazolo[4,5-b]pyridin-2(3H)-one]"
13,> 8 µg/mL,"COc1ccc2ncc(F)c(CCC34CCC(NCc5nc6cccnc6n(C)c5=O)(CC3)CO4)c2n1.Cl [Example 108, 2-((1-(2-(3-Fluoro-6-methoxy-1,5-naphthyridin-4-yl)ethyl)-2-oxabicyclo[2.2.2]octan-4-ylamino)methyl)-4-methylpyrido[3,2-b]pyrazin-3(4H)-one Hydrochloride]"
14,8 µg/mL,"Cl.O=C1COc2ccc(CNC34CCC(CCN5C(=O)COc6cccnc65)(CC3)OC4)nc2N1 [Example 109, 6-((1-(2-(3-Oxo-2H-pyrido[3,2-b][1,4]oxazin-4(3H)-yl)ethyl)-2-oxabicyclo[2.2.2]octan-4-ylamino)methyl)-2H-pyrido[3,2-b][1,4]oxazin-3(4H)-one Hydrochloride]"
15,4 µg/mL,"Cc1nccc2c1ccc(=O)n2CCC12CCC(NCc3ccc4c(n3)NC(=O)CO4)(CC1)CO2 [Example 110, 6-((1-(2-(5-Methyl-2-oxo-1,6-naphthyridin-1(2H)-yl)ethyl)-2-oxabicyclo[2.2.2]octan-4-ylamino)methyl)-2H-pyrido[3,2-b][1,4]oxazin-3(4H)-one]"
16,0.125 µg/mL,"Cc1ccc2ccc(=O)n(CCC34CCC(NCc5ccc6c(n5)NC(=O)CO6)(CC3)CO4)c2n1.Cl [Example 111, 6-((1-(2-(7-Methyl-2-oxo-1,8-naphthyridin-1(2H)-yl)ethyl)-2-oxabicyclo[2.2.2]octan-4-ylamino)methyl)-2H-pyrido[3,2-b][1,4]oxazin-3(4H)-one Hydrochloride]"
17,1 µg/mL,"O=C1COc2ccc(CNC34CCC(CCn5c(=O)c6cccn6c6c(F)cccc65)(CC3)OC4)nc2N1 [Example 112, 6-((1-(2-(9-Fluoro-4-oxopyrrolo[1,2-a]quinoxalin-5(4H)-yl)ethyl)-2-oxabicyclo[2.2.2]octan-4-ylamino)methyl)-2H-pyrido[3,2-b][1,4]oxazin-3(4H)-one]"
18,16 µg/mL,"Cc1ccc2ccc(OCCC34CCC(NCc5ccc6c(n5)NC(=O)CO6)(CC3)CO4)nc2n1 [Example 113, 6-((1-(2-(7-Methyl-1,8-naphthyridin-2-yloxy)ethyl)-2-oxabicyclo[2.2.2]octan-4-ylamino)methyl)-2H-pyrido[3,2-b][1,4]oxazin-3(4H)-one]"
19,4 µg/mL,"Cc1nc2ccccc2n(CCC23CCC(NCc4ccc5c(n4)NC(=O)CO5)(CC2)CO3)c1=O [Example 114, 6-((1-(2-(3-Methyl-2-oxoquinoxalin-1(2H)-yl)ethyl)-2-oxabicyclo[2.2.2]octan-4-ylamino)methyl)-2H-pyrido[3,2-b][1,4]oxazin-3(4H)-one]"
20,0.5 µg/mL,"COc1cc2ncc(=O)n(CCC34CCC(NCc5ccc6c(n5)NC(=O)CO6)(CC3)CO4)c2cc1OC [Example 115, 6-((1-(2-(6,7-Dimethoxy-2-oxoquinoxalin-1(2H)-yl)ethyl)-2-oxabicyclo[2.2.2]octan-4-ylamino)methyl)-2H-pyrido[3,2-b][1,4]oxazin-3(4H)-one]"
21,16 µg/mL,"O=C1COc2ccc(CNC34CCC(CCn5c(=O)ccc6cccnc65)(CC3)OC4)nc2N1 [Example 116, 6-((1-(2-(2-Oxo-1,8-naphthyridin-1(2H)-yl)ethyl)-2-oxabicyclo[2.2.2]octan-4-ylamino)methyl)-2H-pyrido[3,2-b][1,4]oxazin-3(4H)-one]"
22,64 µg/mL,"Cc1nnc2c(=O)n(CCC34CCC(NCc5ccc6c(n5)NC(=O)CO6)(CC3)CO4)c3ccccc3n12 [Example 117, 6-((1-(2-(1-Methyl-4-oxo-[1,2,4]triazolo[4,3-a]quinoxalin-5(4H)-yl)ethyl)-2-oxabicyclo[2.2.2]octan-4-ylamino)methyl)-2H-pyrido[3,2-b][1,4]oxazin-3(4H)-one]"
23,32 µg/mL,"O=C1COc2ccc(CNC34CCC(CCN5C(=O)N6CCCN=C6c6ccccc65)(CC3)OC4)nc2N1 [Example 118, 6-(((1-(2-(6-Oxo-3,4-dihydro-2H-pyrimido[1,2-c]quinazolin-7(6H)-yl)ethyl)-2-oxabicyclo[2.2.2]octan-4-yl)amino)methyl)-2H-pyrido[3,2-b][1,4]oxazin-3(4H)-one]"
24,0.125 µg/mL,"O=C1COc2ccc(CNC34CCC(CCn5c(=O)ccc6ncc(F)cc65)(CC3)OC4)nc2N1 [Example 119, 6-((1-(2-(7-Fluoro-2-oxo-1,5-naphthyridin-1(2H)-yl)ethyl)-2-oxabicyclo[2.2.2]octan-4-ylamino)methyl)-2H-pyrido[3,2-b][1,4]oxazin-3(4H)-one]"
25,0.016 µg/mL,"COc1cnc2ccc(=O)n(CCC34CCC(NCc5ccc6c(n5)NC(=O)CO6)(CC3)CO4)c2c1 [Example 120, 6-(((1-(2-(7-Methoxy-2-oxo-1,5-naphthyridin-1(2H)-yl)ethyl)-2-oxabicyclo[2.2.2]octan-4-yl)amino)methyl)-2H-pyrido[3,2-b][1,4]oxazin-3(4H)-one]"
26,0.016 µg/mL,"COc1cnc2ncc(=O)n(CCC34CCC(NCc5ccc6c(n5)NC(=O)CO6)(CC3)CO4)c2c1 [Example 121, 6-(((1-(2-(7-Methoxy-2-oxopyrido[2,3-b]pyrazin-1(2H)-yl)ethyl)-2-oxabicyclo[2.2.2]octan-4-yl)amino)methyl)-2H-pyrido[3,2-b][1,4]oxazin-3(4H)-one]"
27,0.063 µg/mL,"COc1ccc2ncc(=O)n(CCC34CCC(NCc5cc6c(cn5)OCCO6)(CC3)CO4)c2n1 [Example 122, 4-(2-(4-((2,3-Dihydro-[1,4]dioxino[2,3-c]pyridin-7-yl)methylamino)-2-oxabicyclo[2.2.2]octan-1-yl)ethyl)-6-methoxypyrido[3,2-b]pyrazin-3(4H)-one]"
28,1 µg/mL,"COc1ccc2ncc(=O)n(CCC34CCC(NCc5cc6ccccc6n(C)c5=O)(CC3)CO4)c2n1 [Example 123, 6-Methoxy-4-(2-(4-((1-methyl-2-oxo-1,2-dihydroquinolin-3-yl)methylamino)-2-oxabicyclo[2.2.2]octan-1-yl)ethyl)pyrido[3,2-b]pyrazin-3(4H)-one]"
